From the supplement of paper PMC10307832

Key:
Test in all cases: relative viability (nuclei count vs DMSO), 5 days (fraction); higher = more cells survive
Alpelisib + Luminespib = compound: Cc1nc(NC(=O)N2CCC[C@H]2C(N)=O)sc1-c1ccnc(C(C)(C)C(F)(F)F)c1 [Alpelisib] + CCNC(=O)c1noc(-c2cc(C(C)C)c(O)cc2O)c1-c1ccc(CN2CCOCC2)cc1 [Luminespib] (partner 0.01 µM)
Method in brief: (§1)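 Lung cancer cell lines were seeded in 1536-well plates and dosed by pin tool the next day, with either a single drug or a fixed anchor-drug dose combined with five library-drug doses (not always all listed) spaced in √10 steps. Five days later, one step fixed the cells and stained their nuclei (final 0.05% Triton X-100, 1% formaldehyde, 1 ug/ml Hoechst), and nuclei were counted on 4× images. Relative viability is the nuclei count in treated wells divided by the count in vehicle wells, and each value is the median of duplicate plates.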

OSI-027 + Crizotinib = compound: COc1cccc2cc(-c3nc([C@H]4CC[C@H](C(=O)O)CC4)n4ncnc(N)c34)[nH]c12 [OSI-027] + C[C@@H](Oc1cc(-c2cnn(C3CCNCC3)c2)cnc1N)c1c(Cl)ccc(F)c1Cl [Crizotinib] (partner 1 µM)
Method in brief: as §1

OSI-027 + Vorinostat = compound: COc1cccc2cc(-c3nc([C@H]4CC[C@H](C(=O)O)CC4)n4ncnc(N)c34)[nH]c12 [OSI-027] + O=C(CCCCCCC(=O)Nc1ccccc1)NO [Vorinostat] (partner 1 µM)
Method in brief: as §1

Vemurafenib + Navitoclax = compound: CCCS(=O)(=O)Nc1ccc(F)c(C(=O)c2c[nH]c3ncc(-c4ccc(Cl)cc4)cc23)c1F [Vemurafenib] + CC1(C)CCC(c2ccc(Cl)cc2)=C(CN2CCN(c3ccc(C(=O)NS(=O)(=O)c4ccc(N[C@H](CCN5CCOCC5)CSc5ccccc5)c(S(=O)(=O)C(F)(F)F)c4)cc3)CC2)C1 [Navitoclax] (partner 0.5 µM)
Method in brief: as §1

| Cell Line | relative viability (Alpelisib + Luminespib; first compound 0.04 µM) | relative viability (Alpelisib + Luminespib; first compound 0.1265 µM) | relative viability (Alpelisib + Luminespib; first compound 0.4 µM) | relative viability (Alpelisib + Luminespib; first compound 1.265 µM) | relative viability (Alpelisib + Luminespib; first compound 4 µM) | relative viability (OSI-027 + Crizotinib; first compound 0.01 µM) | relative viability (OSI-027 + Crizotinib; first compound 0.03162 µM) | relative viability (OSI-027 + Crizotinib; first compound 0.1 µM) | relative viability (OSI-027 + Crizotinib; first compound 0.3162 µM) | relative viability (OSI-027 + Crizotinib; first compound 1 µM) | relative viability (OSI-027 + Vorinostat; first compound 0.01 µM) | relative viability (OSI-027 + Vorinostat; first compound 0.03162 µM) | relative viability (OSI-027 + Vorinostat; first compound 0.1 µM) | relative viability (OSI-027 + Vorinostat; first compound 0.3162 µM) | relative viability (OSI-027 + Vorinostat; first compound 1 µM) | relative viability (Vemurafenib + Navitoclax; first compound 0.03162 µM) | relative viability (Vemurafenib + Navitoclax; first compound 0.1 µM) | relative viability (Vemurafenib + Navitoclax; first compound 1 µM) | relative viability (Vemurafenib + Navitoclax; first compound 0.3162 µM) |
| --- | --- | --- | --- | --- | --- | --- | --- | --- | --- | --- | --- | --- | --- | --- | --- | --- | --- | --- | --- |
| NCI-H1563 | 0.488 | 0.479 | 0.404 | 0.503 | 0.462 | 0.835 | 0.894 | 0.768 | 0.701 | 0.733 | – | – | – | – | – | – | – | – | – |
| HCC-366 | – | – | – | – | – | 0.817 | 0.315 | 0.52 | 0.415 | 0.119 | 0.404 | 0.367 | 0.325 | 0.314 | 0.194 | 0.997 | 0.983 | 1.03 | – |
| NCI-H1792 | 0.338 | 0.5 | 0.576 | 0.326 | 0.323 | 1.06 | 0.617 | 1.01 | 0.902 | 0.199 | – | – | – | – | – | 0.565 | 0.61 | 0.593 | 0.439 |
| NCI-H522 | 1.09 | 1.21 | 1.13 | 0.881 | 0.981 | – | – | – | – | – | 0.768 | 1.02 | 0.883 | 0.686 | 0.638 | – | – | – | – |
| NCI-H1623 | 0.487 | 0.374 | 0.477 | 0.385 | 0.417 | – | – | – | – | – | – | – | – | – | – | – | – | – | – |
| ABC-1 | 0.432 | 0.932 | 0.554 | 0.228 | 0.391 | 1.23 | 0.881 | 1.1 | 0.957 | 0.47 | 0.764 | 1.19 | 0.66 | 0.67 | 0.758 | – | – | – | – |
| NCI-H358 | 0.29 | 0.23 | 0.32 | 0.252 | 0.215 | 0.566 | 0.509 | 0.552 | 0.704 | 0.348 | 0.751 | 0.653 | 0.717 | 0.664 | 0.503 | – | – | – | – |
| NCI-H1648 | – | – | – | – | – | – | – | – | – | – | 0.369 | 0.323 | – | 0.477 | 0.236 | – | – | – | – |
| NCI-H1299 | – | – | – | – | – | 0.994 | 0.984 | 0.937 | 1.04 | 0.937 | – | – | – | – | – | 1.03 | 1.03 | 1.03 | 0.976 |
| NCI-H1703 | – | – | – | – | – | 0.753 | 0.591 | 0.595 | 0.672 | 0.374 | – | – | – | – | – | 1.19 | 1.24 | 0.933 | 0.863 |
| NCI-H1395 | 0.568 | 0.663 | 0.755 | 0.604 | 0.724 | – | – | – | – | – | 0.633 | 0.745 | 0.476 | 0.645 | 0.567 | 1.37 | 0.999 | 1.18 | – |
| A549 | – | – | – | – | – | 0.782 | 0.711 | 0.704 | 0.45 | 0.167 | – | – | – | – | – | 1.09 | 1.29 | 1.16 | 1.31 |
| LCLC-103H | 0.97 | 0.993 | 1.04 | 0.72 | 0.735 | 1.07 | 1.03 | 1.18 | 0.948 | 1.01 | 0.781 | 0.64 | 0.747 | 0.704 | 0.613 | – | – | – | – |
| HCC-78 | – | – | – | – | – | 0.289 | 0.322 | 0.33 | 0.274 | 0.185 | 0.477 | 0.326 | 0.384 | 0.329 | 0.268 | 0.818 | 0.608 | 0.656 | 1.13 |
